Results taken from US6348484B1, “Stereoisomeric indole compounds, process for the preparation of the same, and use thereof” (Lead Chemical Co., Ltd., priority 1997, dated 2002).

Columns and labels:
[1] = system: lipid peroxidation of microsome in rat liver; experiment: Inhibitory action against lipid peroxidation of microsome in rat liver (TBA reactive substances, absorption at 535 nm); type: biochemical
Protocol: 10 μl of microsome fraction (protein concentration; 30-50 mg/ ml) prepared from rat liver and 10 μl of a solution of a compound to be tested in ethanol are added to 0.5 ml of 0.1 M Tris hydrochloride buffer (pH7.5) containing 14 mM MgCl2, which is mixed and preincubated at 37° C. for 5 minutes. Then, 10 μl of 0.2M adenosine diphosphate, 10 μl of 12 mM FeSO4, 40 μl of NADPH reproduced system and distilled water are added to make 1 m1, mixed and reacted at 37° C. for 10 minutes.

Compound | melting point [°C] | Inhibiting Concentration (IC50 μg/ml) ([1]; Example 7, rat liver microsome fraction, ADP/FeSO4/NADPH system, 37° C. for 10 minutes) [µg/mL] | Inhibiting Concentration (IC50 μg/ml) ([1]; Example 8, method of Example 7, deamino form compared with synthetic (1″S, 3″S) Martefragin A) [µg/mL]
CC[C@H](C)CCc1nc(COOCc2ccccc2)c(-c2c[nH]c3ccccc23)o1 [compound 55] | 138.5 to 139.5 | – | –
(1″S, 3″S) Martefragin A [(1″S, 3″S)-19] | – | 1.07 | 1.35
